# From patent publication US20230085307A1, “PYRIDAZINONE COMPOUND AND HERBICIDE” (NISSAN CHEMICAL CORPORATION, priority 2019, published 2023)
# Key:
# [1] = test system: green foxtail; assay: Test Example 5: herbicidal effect by foliage application, plastic box (Table 20, symbol G); format: in vivo, green foxtail (Setaria viridis); conditions: 320 g/ha, evaluated three weeks after application
# Method in brief: (§1)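 Plants sown in sterilized diluvial soil and grown 14 days in a greenhouse at 25° C to 30° C, then sprayed on the foliage with the compound's emulsion diluted in water to a predetermined herbicide amount. Injury to weeds and crops scored three weeks after application on a visual rating scale.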
# [2] = test system: Italian ryegrass; assay: Test Example 5: herbicidal effect by foliage application, plastic box (Table 20, symbol K); format: in vivo, Italian ryegrass (Lolium multiflorum); conditions: 320 g/ha, evaluated three weeks after application
# Method in brief: as §1
# [3] = test system: wild oat; assay: Test Example 4: herbicidal effect by soil treatment (Table 19, symbol I); format: in vivo, wild oat (Avena fatua); conditions: amount of applied herbicide 320 g/ha
# Method in brief: (§2)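 Three weeks of greenhouse growth at 25° C. to 30° C. followed a uniform surface spray of water-diluted emulsion at a predetermined herbicide amount. Seeds had been sown beforehand under about 1.5 cm of sterilized diluvial soil. Grading followed criteria set out in an earlier test.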
# [4] = test system: barnyard grass; assay: Test Example 3: herbicidal effect by foliage application, Wagner pot (Table 18, symbol H); format: in vivo, barnyard grass (Echinochloa crus-galli)
# Method in brief: (§3)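 Plants were sown in alluvial soil held under 0.1–0.5 cm standing water and grown 14 days in a greenhouse at 25–30 °C. An emulsifiable formulation, water-diluted to the set dose, was then sprayed onto the foliage, and effects were scored three weeks later using previously defined criteria.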
# [5] = test system: wild oat; assay: Test Example 5: herbicidal effect by foliage application, plastic box (Table 20, symbol I); format: in vivo, wild oat (Avena fatua); conditions: 320 g/ha, evaluated three weeks after application
# Method in brief: as §1
# [6] = test system: lambsquarters; assay: Test Example 4: herbicidal effect by soil treatment (Table 19, symbol O); format: in vivo, lambsquarters (Chenopodium album); conditions: amount of applied herbicide 320 g/ha
# Method in brief: as §2
# [7] = test system: barnyard grass; assay: Test Example 4: herbicidal effect by soil treatment (Table 19, symbol H); format: in vivo, barnyard grass (Echinochloa crus-galli); conditions: amount of applied herbicide 320 g/ha
# Method in brief: as §2
# [8] = test system: Italian ryegrass; assay: Test Example 4: herbicidal effect by soil treatment (Table 19, symbol K); format: in vivo, Italian ryegrass (Lolium multiflorum); conditions: amount of applied herbicide 320 g/ha
# Method in brief: as §2
# [9] = test system: rice flat sedge; assay: Test Example 3: herbicidal effect by foliage application, Wagner pot (Table 18, symbol E); format: in vivo, rice flat sedge (Cyperus iria)
# Method in brief: as §3
# [10] = test system: green foxtail; assay: Test Example 4: herbicidal effect by soil treatment (Table 19, symbol G); format: in vivo, green foxtail (Setaria viridis); conditions: amount of applied herbicide 320 g/ha
# Method in brief: as §2
# [11] = test system: blackgrass; assay: Test Example 5: herbicidal effect by foliage application, plastic box (Table 20, symbol J); format: in vivo, blackgrass (Alopecurus myosuroides); conditions: 320 g/ha, evaluated three weeks after application
# Method in brief: as §1
# [12] = test system: barnyard grass; assay: Test Example 5: herbicidal effect by foliage application, plastic box (Table 20, symbol H); format: in vivo, barnyard grass (Echinochloa crus-galli); conditions: 320 g/ha, evaluated three weeks after application
# Method in brief: as §1
# [13] = test system: southern crabgrass; assay: Test Example 4: herbicidal effect by soil treatment (Table 19, symbol F); format: in vivo, southern crabgrass (Digitaria ciliaris); conditions: amount of applied herbicide 320 g/ha
# Method in brief: as §2
# [14] = test system: redroot pigweed; assay: Test Example 5: herbicidal effect by foliage application, plastic box (Table 20, symbol N); format: in vivo, redroot pigweed (Amaranthus retroflexus); conditions: 320 g/ha, evaluated three weeks after application
# Method in brief: as §1
# [15] = test system: velvetleaf; assay: Test Example 4: herbicidal effect by soil treatment (Table 19, symbol M); format: in vivo, velvetleaf (Abutilon theophrasti); conditions: amount of applied herbicide 320 g/ha
# Method in brief: as §2
# [16] = test system: windgrass; assay: Test Example 5: herbicidal effect by foliage application, plastic box (Table 20, symbol L); format: in vivo, windgrass (Apera spica-venti); conditions: 320 g/ha, evaluated three weeks after application
# Method in brief: as §1
# [17] = test system: persian speedwell; assay: Test Example 4: herbicidal effect by soil treatment (Table 19, symbol R); format: in vivo, Persian speedwell (Veronica persica); conditions: amount of applied herbicide 320 g/ha
# Method in brief: as §2
# [18] = test system: windgrass; assay: Test Example 4: herbicidal effect by soil treatment (Table 19, symbol L); format: in vivo, windgrass (Apera spica-venti); conditions: amount of applied herbicide 320 g/ha
# Method in brief: as §2
# [19] = test system: redroot pigweed; assay: Test Example 4: herbicidal effect by soil treatment (Table 19, symbol N); format: in vivo, redroot pigweed (Amaranthus retroflexus); conditions: amount of applied herbicide 320 g/ha
# Method in brief: as §2
# [20] = test system: chickweed; assay: Test Example 5: herbicidal effect by foliage application, plastic box (Table 20, symbol P); format: in vivo, common chickweed (Stellaria media); conditions: 320 g/ha, evaluated three weeks after application
# Method in brief: as §1
# [21] = test system: blackgrass; assay: Test Example 4: herbicidal effect by soil treatment (Table 19, symbol J); format: in vivo, blackgrass (Alopecurus myosuroides); conditions: amount of applied herbicide 320 g/ha
# Method in brief: as §2
# [22] = test system: Chinese sprangletop; assay: Test Example 3: herbicidal effect by foliage application, Wagner pot (Table 18, symbol D); format: in vivo, chinese sprangletop (Leptochloa chinensis)
# Method in brief: as §3
# [23] = test system: velvetleaf; assay: Test Example 5: herbicidal effect by foliage application, plastic box (Table 20, symbol M); format: in vivo, velvetleaf (Abutilon theophrasti); conditions: 320 g/ha, evaluated three weeks after application
# Method in brief: as §1
# [24] = test system: persian speedwell; assay: Test Example 5: herbicidal effect by foliage application, plastic box (Table 20, symbol R); format: in vivo, Persian speedwell (Veronica persica); conditions: 320 g/ha, evaluated three weeks after application
# Method in brief: as §1
# [25] = test system: southern crabgrass; assay: Test Example 5: herbicidal effect by foliage application, plastic box (Table 20, symbol F); format: in vivo, southern crabgrass (Digitaria ciliaris); conditions: 320 g/ha, evaluated three weeks after application
# Method in brief: as §1
# [26] = test system: chickweed; assay: Test Example 4: herbicidal effect by soil treatment (Table 19, symbol P); format: in vivo, common chickweed (Stellaria media); conditions: amount of applied herbicide 320 g/ha
# Method in brief: as §2
# [27] = test system: lambsquarters; assay: Test Example 5: herbicidal effect by foliage application, plastic box (Table 20, symbol O); format: in vivo, lambsquarters (Chenopodium album); conditions: 320 g/ha, evaluated three weeks after application
# Method in brief: as §1
# [28] = amount of applied herbicide 320 g/ha
# [29] = foliage application after 14-day growth
smiles,measurement,setting,value
COc1ccccc1-c1sc2ccc(NC(=O)OC(C)(C)C)cc2c1-c1c(O)c(C)nn(C)c1=O [2-181],herbicidal effect on G: green foxtail (criteria 0-5),[1]; foliage application,1 (Herbicidal rate of 5% or more and less than 20%)
same,herbicidal effect on K: Italian ryegrass (criteria 0-5),[2]; foliage application,0 (Herbicidal rate of 5% or less (almost no effect))
same,"I: wild oat, herbicidal effect rating",[3],0 (Herbicidal rate of 5% or less (almost no effect))
same,herbicidal effect on H: barnyard grass,[4]; [28],2 (Herbicidal rate of 20% or more and less than 40%)
same,herbicidal effect on I: wild oat (criteria 0-5),[5]; foliage application,0 (Herbicidal rate of 5% or less (almost no effect))
same,"O: lambsquarters, herbicidal effect rating",[6],4 (Herbicidal rate of 70% or more and less than 90%)
same,"H: barnyard grass, herbicidal effect rating",[7],0 (Herbicidal rate of 5% or less (almost no effect))
same,"K: Italian ryegrass, herbicidal effect rating",[8],0 (Herbicidal rate of 5% or less (almost no effect))
same,herbicidal effect on E: rice flat sedge,[9]; [28],0 (Herbicidal rate of 5% or less (almost no effect))
same,"G: green foxtail, herbicidal effect rating",[10],0 (Herbicidal rate of 5% or less (almost no effect))
same,herbicidal effect on J: blackgrass (criteria 0-5),[11]; foliage application,0 (Herbicidal rate of 5% or less (almost no effect))
same,herbicidal effect on H: barnyard grass (criteria 0-5),[12]; foliage application,0 (Herbicidal rate of 5% or less (almost no effect))
same,"F: southern crabgrass, herbicidal effect rating",[13],0 (Herbicidal rate of 5% or less (almost no effect))
same,herbicidal effect on N: redroot pigweed (criteria 0-5),[14]; foliage application,5 (Herbicidal rate of 90% or more (almost completely withered))
same,"M: velvetleaf, herbicidal effect rating",[15],0 (Herbicidal rate of 5% or less (almost no effect))
same,herbicidal effect on L: windgrass (criteria 0-5),[16]; foliage application,0 (Herbicidal rate of 5% or less (almost no effect))
same,"R: persian speedwell, herbicidal effect rating",[17],4 (Herbicidal rate of 70% or more and less than 90%)
same,"L: windgrass, herbicidal effect rating",[18],0 (Herbicidal rate of 5% or less (almost no effect))
same,"N: redroot pigweed, herbicidal effect rating",[19],3 (Herbicidal rate of 40% or more and less than 70%)
same,herbicidal effect on P: chickweed (criteria 0-5),[20]; foliage application,5 (Herbicidal rate of 90% or more (almost completely withered))
same,"J: blackgrass, herbicidal effect rating",[21],0 (Herbicidal rate of 5% or less (almost no effect))
same,herbicidal effect on D: Chinese sprangletop,[22]; [28],3 (Herbicidal rate of 40% or more and less than 70%)
same,herbicidal effect on M: velvetleaf (criteria 0-5),[23]; foliage application,3 (Herbicidal rate of 40% or more and less than 70%)
same,herbicidal effect on R: persian speedwell (criteria 0-5),[24]; foliage application,5 (Herbicidal rate of 90% or more (almost completely withered))
same,herbicidal effect on F: southern crabgrass (criteria 0-5),[25]; foliage application,0 (Herbicidal rate of 5% or less (almost no effect))
same,"P: chickweed, herbicidal effect rating",[26],4 (Herbicidal rate of 70% or more and less than 90%)
same,herbicidal effect on O: lambsquarters (criteria 0-5),[27]; foliage application,4 (Herbicidal rate of 70% or more and less than 90%)
CCCC(=O)Oc1c(C)nn(C)c(=O)c1-c1c(-c2ccccc2F)sc2c(Cl)cccc12 [4-059],herbicidal effect on G: green foxtail (evaluation grade 0-5),[1]; [29],0 (Herbicidal rate of 5% or less (almost no effect))
same,herbicidal effect on K: Italian ryegrass (evaluation grade 0-5),[2]; [29],0 (Herbicidal rate of 5% or less (almost no effect))
same,"Herbicidal effect by soil treatment, I: wild oat",[3],0 (Herbicidal rate of 5% or less (almost no effect))
same,herbicidal effect on barnyard grass (H),[4]; 320 g/ha,4 (Herbicidal rate of 70% or more and less than 90%)
same,herbicidal effect on I: wild oat (evaluation grade 0-5),[5]; [29],1 (Herbicidal rate of 5% or more and less than 20%)
same,"Herbicidal effect by soil treatment, O: lambsquarters",[6],0 (Herbicidal rate of 5% or less (almost no effect))
same,"Herbicidal effect by soil treatment, H: barnyard grass",[7],0 (Herbicidal rate of 5% or less (almost no effect))
same,"Herbicidal effect by soil treatment, K: Italian ryegrass",[8],0 (Herbicidal rate of 5% or less (almost no effect))
same,herbicidal effect on rice flat sedge (E),[9]; 320 g/ha,4 (Herbicidal rate of 70% or more and less than 90%)
same,"Herbicidal effect by soil treatment, G: green foxtail",[10],0 (Herbicidal rate of 5% or less (almost no effect))
same,herbicidal effect on J: blackgrass (evaluation grade 0-5),[11]; [29],0 (Herbicidal rate of 5% or less (almost no effect))
same,herbicidal effect on H: barnyard grass (evaluation grade 0-5),[12]; [29],0 (Herbicidal rate of 5% or less (almost no effect))
same,"Herbicidal effect by soil treatment, F: southern crabgrass",[13],0 (Herbicidal rate of 5% or less (almost no effect))
same,herbicidal effect on N: redroot pigweed (evaluation grade 0-5),[14]; [29],3 (Herbicidal rate of 40% or more and less than 70%)
same,"Herbicidal effect by soil treatment, M: velvetleaf",[15],0 (Herbicidal rate of 5% or less (almost no effect))
same,herbicidal effect on L: windgrass (evaluation grade 0-5),[16]; [29],0 (Herbicidal rate of 5% or less (almost no effect))
same,"Herbicidal effect by soil treatment, R: persian speedwell",[17],4 (Herbicidal rate of 70% or more and less than 90%)
same,"Herbicidal effect by soil treatment, L: windgrass",[18],0 (Herbicidal rate of 5% or less (almost no effect))
same,"Herbicidal effect by soil treatment, N: redroot pigweed",[19],0 (Herbicidal rate of 5% or less (almost no effect))
same,herbicidal effect on P: chickweed (evaluation grade 0-5),[20]; [29],5 (Herbicidal rate of 90% or more (almost completely withered))
same,"Herbicidal effect by soil treatment, J: blackgrass",[21],0 (Herbicidal rate of 5% or less (almost no effect))
same,herbicidal effect on Chinese sprangletop (D),[22]; 320 g/ha,4 (Herbicidal rate of 70% or more and less than 90%)
same,herbicidal effect on M: velvetleaf (evaluation grade 0-5),[23]; [29],3 (Herbicidal rate of 40% or more and less than 70%)
same,herbicidal effect on R: persian speedwell (evaluation grade 0-5),[24]; [29],4 (Herbicidal rate of 70% or more and less than 90%)
same,herbicidal effect on F: southern crabgrass (evaluation grade 0-5),[25]; [29],0 (Herbicidal rate of 5% or less (almost no effect))
same,"Herbicidal effect by soil treatment, P: chickweed",[26],4 (Herbicidal rate of 70% or more and less than 90%)
same,herbicidal effect on O: lambsquarters (evaluation grade 0-5),[27]; [29],2 (Herbicidal rate of 20% or more and less than 40%)
